{
  "source": "patent US8114895B2",
  "about": "“Use of bipyridine compound ‘Caerulomycin A’ derivatives and analogs thereof as immunosuppressive agents” (Council of Science and Industrial Research, priority 2005, dated 2012)",
  "system": "CD4^+ T cells",
  "experiment": "CD28, CTLA-4 and LFA-1 expression on T cells by flow cytometry",
  "format": "cell-based",
  "protocol": "CD28 and CTLA-4 expression was detected on the surface of the resting and ConA activated CD4^+ T cells by flow cytometric analysis. Briefly, the splenocytes (3×10^6 cells/well) were activated with OVA (200 μg/ml) or ConA (1 μg/ml and 2 μg/ml) and were incubated in the presence of different concentrations of Caerulomycin A (0.0125-0.45 μg/ml). The cultures were harvested after 24, 48, 72 and 96 h and cells were stained for the expression of CD4, CD28 and CTLA-4. Further, cultures were also set where Caerulomycin A was added after 24 h and 48 h of the initiation of cultures and the cells were stained after incubating further for 24 h. The cells were harvested and 3-color staining was done using PE (Phycoerythrin) conjugated anti-CD4 Ab, FITC (Fluorescein isothiocyanate) conjugated anti-CTLA-4, and Cy (Cy-chrome) conjugated CD28 Abs. The cells from each suspension were acquired on CELLQUEST software of FACScan (Becton Dickinson, Mountain View, Calif.). […] The analysis for the mean fluorescence intensity (MFI) was done on histograms where abcissa and ordinate denote log fluorescence and relative cell count, respectively.\nExamples establishing the role of Caerulomycin A [isolated from a novel species of Actinoalloteichus] in inducing immunosuppression based on the following: • Splenocytes of BALB/c mice were stimulated with either ConA (1 μg/ml and 2 μg/ml) or LPS (5 μg/ml and 10 μg/ml) and were cultured with different concentrations of Caerulomycin A (0.0003-0.1 μg/ml). […] Radioactivity incorporated was measured by liquid scintillation counting. • Antigen ovalbumin (100 μg/ml) emulsified in Freund's complete adjuvant was injected in a group consisting of 5 BALB/c mice. […] Radioactivity incorporated was measured by liquid scintillation. The culture supernatants were collected after 48 h and cytokines were measured by ELISA. • Immunosuppressive effect of different doses of Caerulomycin A was monitored on naïve CD4^+ T cells, antigen reactive CD4^+ T cells, Th2 clone and Th1 hybridoma. […]",
  "key": {"[1]": {"details": "CD4+ T cells, Caerulomycin A 0.0125-0.45 μg/ml"}},
  "data": [
    {"smiles": "COc1cc(/C=N/O)nc(-c2ccccn2)c1", "note": "[Caerulomycin A, (E)-4-methoxy-2,2′-bipyridine-6-carbaldehyde oxime]", "values": [
      {"measurement": "expression or percentage of LFA-1 positive cells", "result": "did not exhibit any significant change"},
      {"measurement": "expression and percentage of CD28", "setting": "[1]", "result": "decreased the expression and percentage"},
      {"measurement": "expression and percentage of CTLA-4 positive cells", "setting": "[1]", "result": "significantly enhanced the expression but also the percentage"}
    ]}
  ]
}
